From patent publication EP2982680B1, “PROTAMINE PEPTIDOMIMETIC, AND PHARMACEUTICALLY ACCEPTABLE SALTS AND USE THEREOF” (Academy of Military Medical Sciences, priority 2013, dated 2014)
Values belong to the compound of their own block, whether it stands above or below them. Where a SMILES comes first, the peptide text is derived from it. Where no end group is shown, it is not given here.

Legend:
[1] = amino acid; cited from earlier work
[2] = Water solubility of synthesized peptides
[3] = test system: heparin; test: Antagonism of protamine-like peptides against heparin anticoagulation in vitro (heparin neutralization, rabbit whole blood clotting); set-up: species or system New Zealand rabbits; conditions: for Amount of neutralized heparin (U/mg) Mean ± SD: average from five tests; for Amount of neutralized heparin (U/mg) Mean ± SD / Clotting time / Amount of neutralized heparin (U/mg) 1 / Amount of neutralized heparin (U/mg) 2 / Amount of neutralized heparin (U/mg) 3 / Amount of neutralized heparin (U/mg) 4 / Amount of neutralized heparin (U/mg) 5: rabbit whole blood added with heparin; for I (Anti-heparin index): concentration of polypeptide/1 unit of heparin, lower index = better antagonism; for Clotting time: 37 °C, blank control 10.62±0.49; for Amount of neutralized heparin (U/mg) 1: repeat 1 of 5; for Amount of neutralized heparin (U/mg) 1 / Amount of neutralized heparin (U/mg) 2 / Amount of neutralized heparin (U/mg) 3 / Amount of neutralized heparin (U/mg) 4 / Amount of neutralized heparin (U/mg) 5: test sample 1 mg per mL; for Amount of neutralized heparin (U/mg) 2: repeat 2 of 5; for Amount of neutralized heparin (U/mg) 3: repeat 3 of 5; for Amount of neutralized heparin (U/mg) 4: repeat 4 of 5; for Amount of neutralized heparin (U/mg) 5: repeat 5 of 5
From the text: Reference standard of heparin was exactly weighed and then dissolved into several solutions with different concentrations by adding 0.9% sodium chloride solution according to the marked potency. The increment of heparin units per mL between two solutions having adjacent concentrations should be similar with no more than five units.
The test sample was the protamine-like peptide. If the test sample was in a powder form, it was accurately weighed on the basis of dry sample. Then, a solution of 0.9% sodium chloride was added thereto to provide a solution containing 1 mg of test sample per mL.
Eight small dry clean teat tubes with the same diameter (0.8 × 3.8 cm) were picked. Tube 1 and Tube 8 were used as the blank control into which 0.2 mL of 0.9% sodium chloride solution was added. Tube 2 to Tube 7 were used as the ones with test samples into each of which 0.1 ml of test solution was added together with 0.1 ml of heparin standard dilution having one concentration mentioned above. The mixture was well mixed immediately. An appropriate amount (0.8 ml) of whole blood freshly drawn from rabbits was added into these eight test tubes described above and then well mixed immediately to avoid generation of bubbles. Timing began at that time and the test tubes were all placed in a thermostatic water bath at 37 ± 0.5 °C. The interval between blood sampling and tube incubation in the thermostatic water bath should not be longer than two minutes. If the plasma was used, then 0.7 mL of plasma was added to each of the test tubes described above and then the test tubes were placed into a thermostatic water bath at 37 ± 0.5 °C to warm up for 5 to 10 minutes. Then, into each test tube, 0.1 mL of 1% calcium chloride solution was added and immediately mixed to avoid generation of bubbles. At that time, timing began. The test tubes were observed and the time until coagulation was recorded.
The clotting time in one control tube should not be more than 1.35 times longer than that in the other control tube. Among test tubes where the clotting time was no longer than 150% of the average coagulating time in two control tubes, the tube with the highest concentration of heparin was used as the endpoint tube.
The test was repeated for five times. The concentration of heparin in the endpoint tube was measured in all five tests, and the deviation was not allowed to be higher than 10 units. The average from five tests was deemed as the number of units of the heparin neutralized by 1 mg of the test sample (dry product) (the amount of neutralized heparin).
The anticoagulant time of heparin, i.e. the clotting time from the addition of the series of protamine-like peptides, were recorded where the clotting time in tubes with plasma but not heparin was considered as the control clotting time. The average value in each coagulation test was calculated, and ratio of the concentration in nmol of the added potamine-like peptide to 1 IU of neutralized heparin was regarded as the anti-heparin index (I) of the protamine-like peptide. Anti-heparin index = concentration of polypeptide/1 unit of heparin (nmol/U). [formula]

Compound: N=C(N)NCCC[C@H](N)C(=O)O [Arginine]
isoelectric point (pI) [1]: 10.76

Compound: N[C@@H](Cc1c[nH]cn1)C(=O)O [Histidine]
isoelectric point (pI) [1]: 7.59

Compound: NCCCC[C@H](N)C(=O)O [Lysine]
isoelectric point (pI) [1]: 9.74

water solubility [2]: good water solubility
Compound: N=C(N)NCCC[C@H](NC(=O)[C@H](CCCNC(=N)N)NC(=O)[C@@H](N)CCCNC(=N)N)C(=O)O [R3, (R)3] (H-Arg-Arg-Arg-OH)

water solubility [2]: good water solubility
Compound: N=C(N)NCCC[C@H](NC(=O)[C@H](CCCNC(=N)N)NC(=O)[C@H](CCCNC(=N)N)NC(=O)[C@H](CCCNC(=N)N)NC(=O)[C@H](CCCNC(=N)N)NC(=O)[C@H](CCCNC(=N)N)NC(=O)[C@@H](N)CCCNC(=N)N)C(=O)O [R7, (R)7]

water solubility [2]: good water solubility
Compound: N=C(N)NCCC[C@H](NC(=O)[C@H](CCCNC(=N)N)NC(=O)[C@H](CCCNC(=N)N)NC(=O)[C@H](CCCNC(=N)N)NC(=O)[C@H](Cc1c[nH]cn1)NC(=O)[C@H](CCCNC(=N)N)NC(=O)[C@H](CCCNC(=N)N)NC(=O)[C@H](CCCNC(=N)N)NC(=O)[C@H](CCCNC(=N)N)NC(=O)[C@H](CCCNC(=N)N)NC(=O)[C@H](CCCNC(=N)N)NC(=O)[C@H](CCCNC(=N)N)NC(=O)[C@H](CCCNC(=N)N)NC(=O)[C@H](CCCNC(=N)N)NC(=O)[C@@H](N)CCCNC(=N)N)C(=O)O [R15-5]

Compound: KKKKKKKKKKKKKKK [K15, (K)15]
water solubility [2]: good water solubility

water solubility [2]: good water solubility
Compound: RRRRR [R5, (R)5]

Compound: RRRRRRHRRRRRRRR [R15-8]
Amount of neutralized heparin (U/mg) Mean ± SD [3]: 108.4±1.32 U/mg
I (Anti-heparin index) [3]: 3.93 nmol/U
Clotting time [3]: 14.35 ± 0.38 min
Amount of neutralized heparin (U/mg) 1 [3]: 110 U/mg
Amount of neutralized heparin (U/mg) 2 [3]: 105 U/mg
Amount of neutralized heparin (U/mg) 3 [3]: 105 U/mg
Amount of neutralized heparin (U/mg) 4 [3]: 112 U/mg
Amount of neutralized heparin (U/mg) 5 [3]: 110 U/mg
water solubility [2]: good water solubility

Compound: RRRRRRRRRRRRRHR [R15-2]
Amount of neutralized heparin (U/mg) Mean ± SD [3]: 110±1.342 U/mg
I (Anti-heparin index) [3]: 4.66 nmol/U
Clotting time [3]: 13.35 ± 0.56 min
Amount of neutralized heparin (U/mg) 1 [3]: 110 U/mg
Amount of neutralized heparin (U/mg) 2 [3]: 113 U/mg
Amount of neutralized heparin (U/mg) 3 [3]: 110 U/mg
Amount of neutralized heparin (U/mg) 4 [3]: 110 U/mg
Amount of neutralized heparin (U/mg) 5 [3]: 110 U/mg
water solubility [2]: good water solubility

water solubility [2]: good water solubility
Compound: RRRRRRRRRRRRRRRRRRRR [R20, (R)20]
